According to patent US4273771A, “Novel Δ^4,9 -gonadiene-21-ol-3,20-diones” (Roussel Uclaf, priority 1978, dated 1981):

Experiments:
[1] = biological target: T1, specific progesterone receptors (uterine cytosol) (Oryctolagus cuniculus, UniProt P06186); assay: hormonal receptor method: displacement of tritiated Product R in rabbit uterine cytosol; type: binding; settings: for ARL (relative affinity of the test product): progesterone = 100
T1 construct: the uterus was removed and homogenized in a buffered solution; from tissue; host or cells: uterus cytosol (105,000 g supernatant) of immature estradiol-treated rabbits
T1 sequence (P06186 1-930): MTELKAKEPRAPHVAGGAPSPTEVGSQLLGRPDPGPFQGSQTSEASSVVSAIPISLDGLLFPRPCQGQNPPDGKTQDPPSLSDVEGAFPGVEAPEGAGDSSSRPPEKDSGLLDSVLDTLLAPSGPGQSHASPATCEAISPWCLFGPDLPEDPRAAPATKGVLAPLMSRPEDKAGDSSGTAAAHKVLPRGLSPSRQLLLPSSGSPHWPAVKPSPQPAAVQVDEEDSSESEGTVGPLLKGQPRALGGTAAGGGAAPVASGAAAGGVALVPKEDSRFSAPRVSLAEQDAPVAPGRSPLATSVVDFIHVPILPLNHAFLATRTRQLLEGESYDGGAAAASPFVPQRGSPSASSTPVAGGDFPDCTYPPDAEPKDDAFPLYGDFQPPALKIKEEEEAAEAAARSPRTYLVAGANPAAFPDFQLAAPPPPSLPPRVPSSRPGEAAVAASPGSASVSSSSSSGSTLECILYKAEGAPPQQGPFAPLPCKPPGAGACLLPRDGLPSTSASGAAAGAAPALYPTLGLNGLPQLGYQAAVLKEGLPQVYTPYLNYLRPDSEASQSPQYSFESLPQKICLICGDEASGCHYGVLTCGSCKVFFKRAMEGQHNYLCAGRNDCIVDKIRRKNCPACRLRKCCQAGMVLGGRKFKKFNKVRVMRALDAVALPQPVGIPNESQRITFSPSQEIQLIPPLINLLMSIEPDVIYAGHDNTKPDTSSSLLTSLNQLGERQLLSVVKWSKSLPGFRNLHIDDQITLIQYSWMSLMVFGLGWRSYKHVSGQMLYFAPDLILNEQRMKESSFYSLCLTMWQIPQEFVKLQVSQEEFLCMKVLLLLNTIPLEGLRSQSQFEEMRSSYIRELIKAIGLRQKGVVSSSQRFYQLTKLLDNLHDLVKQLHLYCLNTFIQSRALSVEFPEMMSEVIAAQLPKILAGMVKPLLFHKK
Experimental: The progestomimetic activity was determined for the product A of Example 1 by the hormonal receptor method of Raynaud et al [J. Ster. Biochem., Vol. 6 (1975), p. 615-622 and Physiology and Genetics of Reproduction, 1975, Part A, p. 143-160]. Immature rabbits received 25 μg of estradiol percutaneously and were sacrificed after 5 days and the uterus was removed and homogenized in a buffered solution of 10 mM of tromethamine, 0.25 M of saccharose and a pH of 7.4 was kept with hydrochloric acid. The homogenate was centrifuged at 105,000 g per hour and the surnageant or cytosol was adjusted to a solution of 1/50 (weight/volume). […] The radioactivity of the tritiated product R was determined after 2 hours and after 24 hours by the technique of adsorption on carbondextran (1.25%-0.625%). The plots were the curves of the right parallel of the axis of abscisses of ordinate [formula] wherein Bo is the maximum amount of tied tritiated product R measured in the incubation containing only tritiated product R and Bmin is the minimum amount of tied tritiated product R (non-specific) measured in the incubation containing tritiated product R and a large excess of cold product R (2500×10^-9 M) and the curves representing the percentages of tied tritiated product R B/Bo as a logarithmatic function of the concentrations of added cold product R.
The intersections of these I50 straight lines and the curves permit the determination of the values: CP--concentration of cold progesterone which inhibits by 50% the fixation of the tritiated product R and CX--concentration of test product which inhibits by 50% the fixation of tritiated product R. The relative affinity of the test product (ARL) was determined by the formula [formula] and the results are reported in Table I

[2] = tested on: immature rabbits sensitized with estradiol; assay: Clauberg test: proliferation of endometric lace; type: in vivo, rabbit; settings: for MacPhail units: subcutaneous, 5 days
Experimental: The progestomimetic activity was also determined by the Clauberg test in which groups of 3 immature rabbits were previously sensitized by subcutaneous administration of estradiol for 5 days at a daily dose of 5 μg. Two days after the last treatment, the compound A of Example 1 in solution in sesame oil containing 5% of benzyl alcohol was subcutaneously administered daily for 5 days and the rabbits were killed on the 6th day. The uterus was removed and the proliferation of endometric lace which is characteristic of progestomimetic activity was determined in MacPhail units.

immature female mice = assay: antiestrogenic activity, uterus weight (method of Rubin and Dorfman et al); type: in vivo
Experimental: The estrogenic activity of the product A of Example 1 was also determined by the method of Rubin [Endocrinology, Vol. 49 (1951), p. 429] and Dorfman et al [Methods in Hormone Research, Vol. II (1962), p. 118] in which groups of 4 immature female mice 18 days old received once a day for 3 days a subcutaneous injection of estradiol only, only the test product or estradiol and the test product. In the last case, separate injections were used. The animals were killed on the 4th day and the uterus was removed, dissected and weighed. The test product was administered in a volume of 0.1 ml of sesame oil solution containing 5% of benzyl alcohol at a total dose of 0.27 μg of estradiol and the test compound was used at total doses of 0.3, 1.0, 3 and 10 μg.

[3] = total dose 0.3 μg + estradiol 0.27 μg
[4] = total dose 1 μg + estradiol 0.27 μg
[5] = total dose 3 μg + estradiol 0.27 μg
[6] = total dose 10 μg + estradiol 0.27 μg

With CC(O)C(=O)C1(C)CCC2C3CCC4=CC(=O)CCC4=C3CCC21C (single isomer, unassigned) [Product A of Example 1, 17α-methyl-17β-(2-hydroxy-1-oxopropyl)-Δ^4,9-estradiene-3-one] the “ARL (relative affinity of the test product)” value ([1]; 2 h incubation at 0° C.) was 204, the “ARL (relative affinity of the test product)” value ([1]; 24 h incubation at 0° C.) was 688 and the “affinity for specific uterine reception of progesterone compared with progesterone” value ([1]; result in words) was “much greater affinity”. For the same molecule, the MacPhail units ([2]; 1 μg daily) was 2.2 MacPhail units, the MacPhail units ([2]; 3 μg daily) was 3.4 MacPhail units and the MacPhail units ([2]; 10 μg daily) was 3.4 MacPhail units. The progestomimetic activity ([2]; result in words) was “very strong progestomimetic activity”, the “antiestrogenic activity against estradiol” value (immature female mice; dose of 1 μg, result in words) was “clear antiestrogenic activity” and the “Average Weight of uterus” value (immature female mice; test product only, total dose 0.3 μg) was 14.6 mg. The “Average Weight of uterus” value (immature female mice; test product only, total dose 1 μg) was 13.0 mg, the “Average Weight of uterus” value (immature female mice; test product only, total dose 3 μg) was 17.1 mg and the “Average Weight of uterus” value (immature female mice; test product only, total dose 10 μg) was 15.8 mg. For the same molecule, the “Average Weight of uterus” value (immature female mice; [3]) was 80.5 mg, the “change of average uterus weight versus estradiol only” value (“change” for short) (immature female mice; [3]) was -19% and the “Average Weight of uterus” value (immature female mice; [4]) was 59.6 mg. For the same molecule, the “change” value (immature female mice; [4]) was -39%, the “Average Weight of uterus” value (immature female mice; [5]) was 38.5 mg and the “change” value (immature female mice; [5]) was -61%. The “Average Weight of uterus” value (immature female mice; [6]) was 39.6 mg and the “change” value (immature female mice; [6]) was -60%.

For C[C@]12CC[C@@H]3c4ccc(O)cc4CC[C@H]3[C@@H]1CC[C@@H]2O [Estradiol, reference compound], the “Average Weight of uterus” value (immature female mice; estradiol only, total dose 0.27 μg, subcutaneous, 3 days) was 99.3 mg.
